Test results published in ChEMBL document CHEMBL5241075, “Advancement of chimeric hybrid drugs to cure malaria infection: An overview with special emphasis on endoperoxide pharmacophores” (Eur J Med Chem, 2021).
Converted amounts (≈) assume the structure as drawn. The source made the active and inactive calls. No cut-off for these calls is given here.

Columns and labels:
[1] = tested on: Plasmodium falciparum; test: Antiplasmodial activity against Plasmodium falciparum; type: functional, organism-based
[2] = tested on: Plasmodium falciparum; test: Antimalarial activity against chloroquine resistant Plasmodium falciparum FcB1; type: functional, organism-based
[3] = tested on: Plasmodium falciparum; test: Antiplasmodial activity against Plasmodium falciparum FcM29; type: functional, organism-based
[4] = tested on: Plasmodium berghei; test: Antiplasmodial activity against Plasmodium berghei N infected in sc dosed mouse assessed as reduction in parasitemia; type: functional
[5] = tested on: Plasmodium falciparum; test: Antiplasmodial activity against Plasmodium falciparum NF54; type: functional, organism-based
[6] = tested on: Human immunodeficiency virus; test: Antiviral activity against HIV; type: functional, organism-based; settings: Human immunodeficiency virus 1
[7] = tested on: Plasmodium falciparum; test: Antiplasmodial activity against Plasmodium falciparum W2; type: functional, organism-based
[8] = tested on: Plasmodium falciparum; test: Antiplasmodial activity against Plasmodium falciparum D6; type: functional, organism-based
[9] = tested on: Plasmodium falciparum; test: Selectivity ratio of IC50 for antiplasmodial activity against Plasmodium falciparum W2 to IC50 for antiplasmodial activity against Plasmodium falciparum D6; type: functional
[10] = tested on: Plasmodium yoelii; test: Antimalarial activity against Plasmodium yoelii infected in swiss mouse assessed as reduction in parasitemia at 96 mg/kg, po relative to control; type: functional; design: scale not given: the % may be the effect or the level left
[11] = tested on: Plasmodium falciparum; test: Antimalarial activity against chloroquine resistant Plasmodium falciparum FcB1 Colombia; type: functional, organism-based
[12] = tested on: Plasmodium falciparum; test: Antimalarial activity against chloroquine resistant Plasmodium falciparum FcR3 Gambia; type: functional, organism-based
[13] = tested on: Plasmodium falciparum; test: Antimalarial activity against chloroquine resistant Plasmodium falciparum PaloAlto; type: functional, organism-based
[14] = tested on: Plasmodium falciparum; test: Antimalarial activity against chloroquine resistant Plasmodium falciparum W2; type: functional, organism-based
[15] = tested on: Plasmodium falciparum; test: Antimalarial activity against chloroquine resistant Plasmodium falciparum FcM29 Cameron; type: functional, organism-based
[16] = tested on: Plasmodium falciparum; test: Antimalarial activity against chloroquine sensitive Plasmodium falciparum D6; type: functional, organism-based
[17] = tested on: Plasmodium falciparum; test: Antimalarial activity against chloroquine sensitive Plasmodium falciparum F32; type: functional, organism-based
[18] = tested on: Plasmodium vinckei; test: Antimalarial activity against chloroquine resistant Plasmodium vinckei infected in po dosed swiss mouse assessed as reduction in parasitemia; type: functional
[19] = tested on: Plasmodium vinckei petteri; test: Antimalarial activity against chloroquine sensitive Plasmodium vinckei petteri infected in po dosed swiss mouse assessed as reduction in parasitemia; type: functional
[20] = tested on: Plasmodium falciparum; test: Antimalarial activity against erythrocytic stage chloroquine sensitive Plasmodium falciparum W2 infected in mouse assessed as reduction in parasitemia at 32 mg/kg/day, po qd measured after 4 days by Giemsa staining based analysis relative to control; type: functional; design: scale not given: the % may be the effect or the level left; settings: time 4 day
[21] = tested on: Plasmodium falciparum; test: Antimalarial activity against erythrocytic stage chloroquine sensitive Plasmodium falciparum 3D7 infected in mouse assessed as reduction in parasitemia at 63 mg/kg/day, po qd measured after 4 days by Giemsa staining based analysis relative to control; type: functional; design: scale not given: the % may be the effect or the level left; settings: time 4 day
[22] = tested on: Plasmodium falciparum; test: Antimalarial activity against erythrocytic stage chloroquine sensitive Plasmodium falciparum W2 infected in mouse assessed as reduction in parasitemia at 63 mg/kg/day, po qd measured after 4 days by Giemsa staining based analysis; type: functional; design: scale not given: the % may be the effect or the level left; settings: time 4 day
[23] = tested on: Plasmodium falciparum; test: Antiplasmodial activity against chloroquine resistant Plasmodium falciparum by HRP2 ELISA analysis; type: functional, organism-based
[24] = tested on: Plasmodium berghei; test: Antiplasmodial activity against Plasmodium berghei infected in mouse assessed as reduction in parasitemia at 6.8 mg/kg in presence of mefloquine relative to control; type: functional; design: scale not given: the % may be the effect or the level left
[25] = tested on: Plasmodium berghei; test: Antiplasmodial activity against Plasmodium berghei infected in mouse assessed as reduction in parasitemia at 13 mg/kg in presence of mefloquine relative to control; type: functional; design: scale not given: the % may be the effect or the level left
[26] = tested on: Plasmodium falciparum; test: Antiplasmodial activity against Plasmodium falciparum TM91C235; type: functional, organism-based
[27] = tested on: Plasmodium berghei; test: Antimalarial activity against Plasmodium berghei KBG 173 infected in ICR mouse assessed as animal survival at 320 mg/kg/day, po qd administered 3 to 5 days post infection; type: functional, organism-based; settings: time 3-5 day
[28] = tested on: Plasmodium berghei; test: Antimalarial activity against Plasmodium berghei KBG 173 infected in ICR mouse assessed as animal survival at 80 mg/kg/day, po qd administered 3 to 5 days post infection; type: functional, organism-based; settings: time 3-5 day
[29] = tested on: Plasmodium berghei; test: Antimalarial activity against Plasmodium berghei KBG 173 infected in ICR mouse assessed as animal survival at 20 mg/kg/day, po qd administered 3 to 5 days post infection; type: functional, organism-based; settings: time 3-5 day
[30] = tested on: Plasmodium berghei; test: Antimalarial activity against Plasmodium berghei KBG 173 infected in ICR mouse assessed as survival time at 320 mg/kg/day, po qd administered 3 to 5 days post infection; type: functional; settings: time 3-5 day
[31] = tested on: Plasmodium berghei; test: Antimalarial activity against Plasmodium berghei KBG 173 infected in ICR mouse assessed as survival time at 80 mg/kg/day, po qd administered 3 to 5 days post infection; type: functional; settings: time 3-5 day
[32] = tested on: Plasmodium berghei; test: Antimalarial activity against Plasmodium berghei KBG 173 infected in ICR mouse assessed as survival time at 20 mg/kg/day, po qd administered 3 to 5 days post infection; type: functional; settings: time 3-5 day
[33] = tested on: Plasmodium berghei; test: Antimalarial activity against Plasmodium berghei infected in mouse assessed as reduction in parasitemia; type: functional
[34] = tested on: Plasmodium yoelii; test: Antimalarial activity against Plasmodium yoelii infected in mouse assessed as reduction in parasitemia; type: functional
[35] = Lipophilicity, logP of compound; type: physicochemical; settings: octanol/water
[36] = tested on: Plasmodium falciparum; test: Antiplasmodial activity against Plasmodium falciparum gametocytes assessed as inhibition of gametocyte activation by [3H]hypoxanthine incorporation assay; type: functional, organism-based
[37] = tested on: Plasmodium falciparum; test: Antiplasmodial activity against Plasmodium falciparum gametocytes by [3H]hypoxanthine incorporation assay; type: functional, organism-based

In the case of `CC(C)C1=C[C@H]2OC3(CCC(NCCNc4ccnc5cc(Cl)ccc45)CC3)OO[C@@]2(C)CC1` (stereo partly drawn), the IC50 [1] is reported as 0.009 µM, the IC50 [2] is reported as 0.006 µM and the IC50 [3] is reported as 0.021 µM.

`C[C@@H]1CC[C@H]2[C@@H](C)C(c3cccn3C)O[C@@H]3O[C@]4(C)CC[C@@H]1[C@]32OO4` (stereo partly drawn) showed an ED50 [4] of 0.7 mg/kg and an IC50 [5] of 0.0046 µM.

With `Cc1cn([C@H]2C[C@H](N=[N+]=[N-])[C@@H](CO[C@H]3OC4O[C@]5(C)CC[C@H]6[C@H](C)CC[C@@H]([C@H]3C)[C@@]46OO5)O2)c(=O)[nH]c1=O` (stereo partly drawn) the IC50 [6] was 2.86 µM.

In the case of `Cc1cccc(C)c1Nc1nc(OCc2cn(CCCNc3ccnc4cc(Cl)ccc34)nn2)nc(N(C)C)n1`, the IC50 [7] is reported as 0.73 µM, the IC50 [8] is reported as 0.58 µM and the “Ratio IC50” value [9] is reported as greater than 11.1.

Compound `C=C(c1ccccc1)C1COC2(CCC(NCCCNc3ccnc4cc(Cl)ccc34)CC2)OO1` (stereo not drawn) has an Activity [10] of 89%.

In the case of `CC1(C)COC(C2CCC(NC3CCC(Nc4ccnc5cc(Cl)ccc45)CC3)CC2)OO1` (stereo not drawn), the IC50 [11] is reported as 0.024 µM, the IC50 [12] is reported as 0.012 µM and the IC50 [13] is reported as 0.015 µM. The IC50 [14] was 0.015 µM, the IC50 [15] was 0.01 µM and the IC50 [16] was 0.007 µM. It also gave an IC50 [17] of 0.013 µM, an ED100 [18] of 30 mg/kg/day and an ED100 [19] of 32 mg/kg/day. For the same compound, the Activity [20] was 77%, the Activity [21] was 100% and the Activity [22] was 96%. For the same compound, the IC50 [23] was 0.0198 µM, the IC90 [23] was 0.0293 µM and the IC99 [23] was 0.0448 µM. It also gave an MIC [23] of 0.0472 µM (≈ 0.0224 µg/mL).

`C[C@@H]1CC[C@H]2[C@@H](C)C(CCC(=O)Nc3ccc(F)cc3)O[C@@H]3O[C@]4(C)CC[C@@H]1[C@]32OO4` (stereo partly drawn) showed an Activity [24] of 99% and an Activity [25] of 99.6%.

In the case of `Cc1cccc(C)c1Nc1nc(OCc2cn(CCNc3ccnc4cc(Cl)ccc34)nn2)nc(N(C)C)n1`, the IC50 [7] is reported as 1.69 µM, the IC50 [8] is reported as 0.98 µM and the “Ratio IC50” value [9] is reported as greater than 5.6.

With `O=C(NCCNc1ccnc2cc(Cl)ccc12)C1CCC2(CC1)OOC1(CCCCC1)OO2` the IC90 [26] was 0.00378 µM, the Activity [27] was “Active” and the Activity [28] was “Active”. The Activity [29] was “inactive”, the Time [30] was greater than 31 days and the Time [31] was 26.2 days. It also gave a Time [32] of 14.2 days.

With `C[C@@H]1CC[C@H]2[C@@H](C)C(N3CCS(=O)(=O)CC3)O[C@@H]3O[C@]4(C)CC[C@@H]1[C@]32OO4` (stereo partly drawn) the ED50 [33] was 1.5 mg/kg, the ED50 [34] was 3.9 mg/kg and the EC50 [1] was 0.00014 µM. For the same compound, the EC90 [1] was 0.00255 µM and the logP [35] was 2.49.

`O[C@@H](c1cc(C(F)(F)F)nc2c(C(F)(F)F)cccc12)[C@H]1CCCCN1` [(S,R)-MEFLOQUINE] showed an IC90 [7] of 0.64 µM, an IC50 [36] of 5600 µM and an IC50 [37] of 16500 µM. The IC50 [26] was 0.13 µM and the IC90 [26] was 0.264 µM.
